Assay results reported in patent publication US20230142062A1, “THE APPLICATION OF ALOESIN IN THE PREPARATION OF PRODUCTS FOR PREVENTING OR TREATING OBESITY” (HAINAN MEDICAL UNIVERSITY, priority 2020, published 2023).

What was measured:
Type in all cases: cell-based, mouse
adiponectin [1] = test: Real-time quantitative PCR, adiponectin mRNA in 3T3-L1 adipocytes; details: 15 μM, qPCR
C-EBPα = test: Real-time quantitative PCR, C-EBPα mRNA in 3T3-L1 adipocytes; details: 15 and 30 μM, qPCR
Method: (§1) Total RNA extraction reagent (TIANGEN, China) was used to extract total RNA from 3T3-L1 adipocytes. Use 1st strand cDNA kit (Vazyme biotechnology) for reverse transcription into cDNA. SYBR Green PCR Master Mix Kit (Monad, China) reagent and CFX-1000 Touch instrument ([…]) were used to detect the mRNA level of adipocyte browning genes (Ucp-1 and PRDM16) and transcription factors (Fabp, Ppar-γ and C-EBPα). The following conditions were used for reverse transcription: 5 min at 25° C., 15 min at 50° C., and 5 min at 85° C. Amplification: initial denaturation at 95° C. for 30 seconds, followed by denaturation at 95° C. for 5 seconds and 59° C. for 30 seconds (40 cycles). The β-actin was used as a reference gene to standardize the qPCR reaction. The relative expression of genes was calculated based on the average Ct value between samples. Relative expression level=2^{[Cttarget gene−Ct (β-actin)]aloesin treatment group−[Cttarget gene−Ct(β-actin)] 3T3-L1adipocyte]}.

3T3-L1 preadipocytes [2] = test: MTT cell viability of 3T3-L1 preadipocytes; details: 15 and 30 μM aloesin, 24 h and 48 h
Method: (§2) Mouse 3T3-L1 preadipocytes were inoculated with high glucose culture medium (H-DMEM, Hyclon) containing 10% fetal bovine serum (Gibco) and antibiotics (100 U/mL penicillin G and […] streptomycin) at a density of 1×10^4 /mL in an incubator at 37° C. and 5% CO2 for 72 hours. In order to induce the differentiation of 3T3-L1 preadipocytes, when 80% cells are fused, on day 0, growth medium (GM) containing 10% fetal bovine serum, 10 μg/mL insulin (sigma), 1 μM dexamethasone (sigma), 0.5 mM isobutyl-1-Methylxanthine (sigma) was added therein. On the second day, the medium was replaced with a high-glycemic medium containing 10% calf serum and 10 μg/mL insulin. On the 10th day, a large number of lipid droplets accumulated during the differentiation of pre-adipocytes.
Cell viability was determined by MTT, 3T3-L1 preadipocytes were seeded in 96-well plates at a density of 1×10^4 /mL, cultured in an incubator for 24 hours, and then replaced with a medium respectively containing 10, 15, 30 and 60 μM aloesin to continuously cultivate for 24 h or 48 h. 0.5% MTT was added to the cells, after incubating for 1 hour at 37° C., the MTT solution was removed, and DMSO was added to dissolve. The absorbance at 570 nm was measured using an enzyme-labeled instrument (Molecular Devices, CA, USA). Cell viability (%) is expressed as a percentage relative to untreated control cells.

PRDM16 = test: Real-time quantitative PCR, PRDM16 mRNA in 3T3-L1 adipocytes; details: qPCR
Method: as §1

FABP = test: Real-time quantitative PCR, FABP mRNA in 3T3-L1 adipocytes; details: 15 and 30 μM, qPCR
Method: as §1

3T3-L1 adipocytes = test: Lipid accumulation in 3T3-L1 adipocytes (Oil Red O staining); details: 15 and 30 μM
Method: as §2
(§3) The differentiated adipocytes were washed 3 times with PBS, fixed with 10% formaldehyde for 1 hour, then washed 3 times with PBS again, dried for 15 to 30 minutes and stained with Oil Red O working solution for 2 hours. Wash 2 times and 3 times with 60% isopropanol (IPA) and double distilled water respectively. A Zeiss fluorescence microscope (Tokyo, Japan) was used to collect images. 100% IPA extracts Oil Red O, and the absorbance at 490 nm was measured.
After 3T3-L1 preadipocytes were induced to differentiate into adipocytes, aloesin (15 and 30 μM) was added to the adipocytes and cultured for 24 h and 48 h respectively.

PPAR-γ = test: Real-time quantitative PCR, PPAR-γ mRNA in 3T3-L1 adipocytes; details: 15 and 30 μM, qPCR
Method: as §1

3T3-L1 preadipocytes [3] = test: Differentiation of preadipocytes after aloesin pretreatment (Oil Red O staining); details: pretreated with 15 and 30 μM for 24 h and 48 h, then differentiated for 10 days
Method: as §2, §3
3T3-L1 pre-adipocytes were pre-incubated by the aloesin with concentration of 15 and 30 μM for 24 h and 48 h, respectively. […]

adiponectin [4] = test: ELISA, adiponectin in supernatant of 3T3-L1 adipocytes; details: 15 μM, 48 hours
Method: (§4) The 3T3-L1 adipocytes were treated with aloesin for 48 hours, then the supernatant was collected, and the levels of adiponectin and IL-1β in the supernatant were detected with an ELISA kit (Proteintech, China). The ELISA reagent operation was carried out according to the manufacturer's instructions.

UCP-1 = test: Real-time quantitative PCR, UCP-1 mRNA in 3T3-L1 adipocytes; details: qPCR
Method: as §1

IL-1β = test: ELISA, IL-1β in supernatant of 3T3-L1 adipocytes; details: 15 and 30 μM, 48 hours
Method: as §4

## CC(=O)Cc1cc(=O)c2c(C)cc(O)c([C@@H]3O[C@H](CO)[C@@H](O)[C@H](O)[C@H]3O)c2o1 [aloesin]
Adiponectin [1]
  mRNA expression of adiponectin in adipocytes: enhance
C-EBPα
  expression of the transcription factor C-EBPα (mRNA): increase
3T3-L1 preadipocytes [2]
  pre-adipocytes viability: did not influence
PRDM16
  expression of browning gene PDRM16 (mRNA): increase
FABP
  expression of FABP (mRNA): did not affect
3T3-L1 adipocytes; 48 h, compared with the control group
  lipid accumulation of adipocytes: significantly reduce
3T3-L1 adipocytes; treatment for 24 hours
  lipid accumulation in 3T3-L1 adipocytes: did not affect
PPAR-γ
  expression of PPAR-γ (mRNA): did not affect
3T3-L1 preadipocytes [3]
  differentiation of 3T3-L1 preadipocytes: did not affect
Adiponectin [4]
  release of adiponectin in adipocytes: enhance
UCP-1
  expression of browning gene UCP-1 (mRNA): increase
IL-1β
  release of IL-1β in adipocytes: reduce
